Values quoted from earlier work in US20130029422A1, “Composite Substrate for 3D Cell Culture” (priority 2011, published 2013).

Conditions: during culture of breast cancer cells

For estrogen, the “extraction from cell culture medium by PDMS-based cell culture articles” value is given as “extract estrogen from cell culture medium”.
